Data reported in article PMC6855250 (Nature, 2019).

Target: SidJ∆N99-CaM (Legionella pneumophila, UniProt Q5ZTK6)
Sequence (Q5ZTK6 whole entry, looked up): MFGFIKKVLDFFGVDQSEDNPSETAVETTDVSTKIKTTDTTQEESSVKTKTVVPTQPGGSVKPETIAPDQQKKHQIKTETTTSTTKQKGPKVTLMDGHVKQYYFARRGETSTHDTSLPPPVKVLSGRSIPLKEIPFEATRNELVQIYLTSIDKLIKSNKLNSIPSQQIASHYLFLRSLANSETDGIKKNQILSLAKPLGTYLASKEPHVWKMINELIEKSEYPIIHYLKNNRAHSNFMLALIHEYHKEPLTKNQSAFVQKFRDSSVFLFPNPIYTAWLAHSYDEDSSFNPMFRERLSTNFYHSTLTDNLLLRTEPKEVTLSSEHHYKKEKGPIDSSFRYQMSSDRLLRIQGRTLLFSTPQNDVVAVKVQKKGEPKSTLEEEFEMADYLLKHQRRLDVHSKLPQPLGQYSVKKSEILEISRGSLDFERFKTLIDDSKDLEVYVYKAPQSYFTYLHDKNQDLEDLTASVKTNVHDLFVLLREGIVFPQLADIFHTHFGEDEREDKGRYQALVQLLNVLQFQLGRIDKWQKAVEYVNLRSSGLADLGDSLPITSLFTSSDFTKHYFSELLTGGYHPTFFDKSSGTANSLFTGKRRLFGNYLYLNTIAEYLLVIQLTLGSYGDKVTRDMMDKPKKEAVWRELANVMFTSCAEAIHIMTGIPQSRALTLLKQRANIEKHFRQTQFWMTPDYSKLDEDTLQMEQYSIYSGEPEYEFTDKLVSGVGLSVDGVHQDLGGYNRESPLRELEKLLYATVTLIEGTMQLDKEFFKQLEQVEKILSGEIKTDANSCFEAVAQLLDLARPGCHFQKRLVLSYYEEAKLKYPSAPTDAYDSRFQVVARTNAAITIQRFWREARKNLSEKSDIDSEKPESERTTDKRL

Q: Nc1ncnc2c1ncn2[C@@H]1O[C@H](COP(=O)(O)O)[C@@H](O)[C@H]1O [AMP] was tested. Which “X-ray crystal structure, 3.11 Å” value did it give?
A: Its value is “We observed an AMP moiety bound in a pocket formed in the CD”.
